Key:
[1] = tested on: Methanobrevibacter boviskoreani JH1; assay: Plate-based methanogen bioassay of culture filtrates (Example 1, phosphate buffer); type: cell-based; conditions: filtered supernatant 30% v/v (nisin 4 μM); 5 days at 39° C.; OD600 relative to methanogen without treatment; 16 wells
Method: The inoculum of an indicator methanogen strain (Methanobrevibacter boviskoreani JH1) for seeding the plate assay was grown in 9 mL BY medium (Joblin, 2005) supplemented with 0.2 mL of 3 M sodium formate, 0.2 mL of 10 M ethanol, 0.1 mL of Vitamin Solution (Janssen et al., 1997) and 0.1 mL of Coenzyme M Solution (Sigma Aldrich, 0.1 M) by syringe using anaerobic techniques. The head spaces of the tubes were pumped with pressurized O2-free CO2 to 180 kPa and the tubes were incubated at 39° C. without shaking until visible turbidity appeared after 3 to 5 days. Methane produced by the methanogen strain was measured by removing a sample of the headspace gases by syringe and injecting on to a gas chromatograph (GC; Aerograph Corporation, USA) equipped with a Thermal Conductivity Detector (TCD) and using nitrogen as the carrier gas. […] The cultures were routinely observed via wet mounts under fluorescence microscopy, and the methanogen strain appears as short ovoid-shaped rods that fluoresce green under ultraviolet (UV) illumination. […]
Cultures of L. rhamnosus HN001, and control strains (L. plantarum ATCC 8014, L. bulgaricus ATCC 11842) were grown overnight in MRS broth (Sigma-Aldrich) at 39° C. The optical density at 600 nm (OD600) was measured for each culture, and a sample of each was serially diluted through MRS medium and the dilutions plated onto MRS agar plates to determine viable counts. […]

[2] = nisin >1 μM added to alfalfa hay; cited from earlier work
[3] = tested on: Methanobrevibacter boviskoreani JH1; assay: Plate-based methanogen bioassay of bacteriocin extract and supernatant samples (Example 2, MOPS buffer); type: cell-based; conditions: for Mean % Growth JH1 / Mean % Inhibition: 30% v/v, sample 1 vs 0.9% NaCl, samples 2-7 vs MRS + NH4 lactate
Method: Cultures of the indicator methanogen strain were prepared according to item 1.1.1 of Example 1.
Cell and supernatant samples of L. rhamnosus HN001 were derived from a commercial manufacturing run of ˜5,000 L under standard production conditions. Four samples were used, consisting of: • Sample 1. L. rhamnosus HN001 cell sample, unwashed, freeze-dried, low pH extract. • Sample 2. L. rhamnosus HN001 supernatant sample, evaporated @50° C., 35% solids, ˜8× concentrated. • Sample 3. L. rhamnosus HN001 supernatant sample, evaporated @50° C., 45%+solids; ˜11× concentrated. • Sample 4. L. rhamnosus HN001 supernatant sample, freeze-dried.
These samples were kept frozen at −20° C. until needed. Prior to bioassay, the cell sample (Sample 1) was resuspended at 5% (wt/vol) in 0.9% NaCl, pH 6.8, and processed using the bacteriocin extraction method described in 2.1.3 below, resulting in an extract which was stored frozen at −20° C. until use. The evaporated supernatant samples (Samples 2 & 3) and the freeze-dried supernatant sample (Sample 4) were also resuspended at 5% (wt/vol) in 0.9% NaCl, pH 6.8 and filtered through Millex-GP 0.22 μm 25 mm diameter sterile filters (Millipore, Merck, Sigma-Aldrich NZ) into sterile N2-flushed Hungate tubes using 10 mL syringes. The headspace of the Hungate tubes were further flushed for 30 min with a sterile flow of N2 to remove traces of O2 from the samples.
Heat treatments were carried out with the L. rhamnosus HN001 supernatant which generated a further three samples as follows: • Sample 5. L. rhamnosus HN001 supernatant sample, heated at 72° C./15 sec. • Sample 6. L. rhamnosus HN001 supernatant sample, heated at 75° C./4 min. • Sample 7. L. rhamnosus HN001 supernatant sample, heated at 100° C./4 min.
After heat treatment, the samples were filtered through 0.22 μm filters as described above into sterile N2-flushed Hungate tubes and the headspace flushed with a sterile flow of N2. The samples were stored at −20° C. until screening in the indicator methanogen bioassay.
The resuspended culture was transferred into a 15 mL Falcon tube and the pH adjusted to ˜6.8 with 6M NaOH. The pH-adjusted culture sample was incubated at 70° C. for 45 minutes, then centrifuged for 15 min at 2600×g at 4° C. The supernatant was decanted and the cell pellet was resuspended in 8 mL 0.9% NaCl, pH 2. The pH of the resuspended pellet was checked and if necessary, 1M HCl was used to adjust the final pH to 2. The cells were incubated for 2 hours at 4° C. with slow agitation on a shaking platform. The cells were then centrifuged at 2600×g for 15 min at 4° C., and the supernatant collected into a fresh 15 mL Falcon tube. The pH of the supernatant was adjusted 6.8 with 1M NaOH. The pH-adjusted supernatant was filtered through a Millex-GP 0.22 μm 25 mm diameter sterile filter (Millipore, Merck, Sigma-Aldrich NZ) into a sterile N2-flushed Hungate tube using a 10 mL syringe, under sterile conditions. The filtered supernatant was frozen at −20° C. until use.
The bacteriocin extracts contained under anaerobic conditions in Hungate tubes were placed into an anaerobic chamber and allowed to thaw. All of the assay components except the bacteriocin extracts, were added and mixed in a sterile Hungate tube inside the anaerobic chamber in proportion to those indicated in Table 3 and then dispensed into wells of a multiwell 96 well plate containing the bacteriocin extracts. […]

ruminal methanogens = conditions: mixed rumen in vitro assay; cited from earlier work

Substance | % methanogen growth [1] | ratio of acetate to propionate production (in words) [2] | inhibition of growth of the indicator methanogen strain (in words) [3] | Mean % Growth JH1 ([3]; Assay 1) | Mean % Inhibition ([3]; Assay 1) | Mean % Growth JH1 ([3]; Assay 2) | Mean % Inhibition ([3]; Assay 2) | reduction of methane production (ruminal methanogens)
Nisin | 12.2% | reduced | strong inhibition | 5.2% | 97.5% | 18.2% | 81.8% | –
bovicin HC5 | – | – | – | – | – | – | – | 50%

Reference: patent US20240075080A1, “USE OF LACTIC ACID BACTERIA TO INHIBIT METHANOGEN GROWTH OR REDUCE METHANE EMISSIONS” (Fonterra Co-Operative Group Limited, priority 2020, published 2024)
